Assay results published in article PMC3674958 (Investigational new drugs, 2012).

Tests used:
[1] = Plasma pharmacokinetics of irinotecan and its metabolites; details: human, iv
[2] = tested on: plasma proteins; test: Sorafenib fraction unbound in patient plasma by equilibrium dialysis; assay type: in vitro ADME; details: human
[3] = clinical; details: human, in vivo, 400 mg

Tmax ([1]; 100 mg/m2)	Tmax ([1]; 120 mg/m2)	fraction unbound [2]	Cmax ([3]; Cmax)	Tmax ([3]; Tmax)	Compound
1.4 h	1.4 h				CCc1c2c(nc3ccc(OC(=O)N4CCC(N5CCCCC5)CC4)cc13)-c1cc3c(c(=O)n1C2)COC(=O)[C@]3(O)CC [Irinotecan]
		0.0027 to 0.0067	4710 ± 3520 ng/mL	4.1 h	CNC(=O)c1cc(Oc2ccc(NC(=O)Nc3ccc(Cl)c(C(F)(F)F)c3)cc2)ccn1 [Sorafenib, reference compound]
